Measured values from patent US20240058265A1, “TREATMENT OF OCULAR DISEASES USING ENDOTHELIN RECEPTOR ANTAGONISTS” (Perfuse Therapeutics, Inc., priority 2021, published 2024).

How the values were obtained:
Permeability (PAMPA) = assay type: in vitro ADME
From the text: (§1) In the above table, the physicochemical data, e.g., solubility, were obtained following standard protocols known in the field (see, e.g., Reis et al., Mini Rev Med Chem., 2010, 10(11):1071-6; Avdeef et al., Expert Opin Drug Metab Toxicol., 2005, 1(2):325-42; Bharate et al., Comb Chem High Throughput Screen., 2016, 19(6):461-9; and Jain et al., J Pharm Biomed Anal., 2013, 86:11-35.); and the biochemical data, i.e., potency for ETA/ETB, were obtained following the protocols known in the field (see, e.g., Kirkby et al., Br J Pharmacol., 2008, 153(6):1105-19; and Maguire et al., Br J Pharmacol., 2014, 171(24):5555-72.).

Stability in solid state = assay type: physicochemical; conditions: 2 h@125° C.
From the text: as §1

ET-1 induced vasospasm = test: Rabbit ET-1 induced vasospasm model, retinal blood flow (OCT-A, FA); assay type: in vivo, rabbit (Oryctolagus cuniculus)
Procedure: Adult, male Dutch-belted rabbits were given a 20 μl intravitreal injection (IVT) of 0.5 μg of ET-1 followed by a 20 μl intravitreal injection of 10-100 μg Edonentan given 30 min after the ET-1 administration. IOP, optical coherence tomography—angiography (OCT-A), and fluorescein angiograms (FA) were performed at pre-specified time points (30, 45, 60, and 75 min) following ET-1 and Edonentan administration to assess retinal blood flow changes induced by ET-1+/−Edonentan. […] To evaluate the effect of retinal blood flow following intravitreally administered endothelin-1 (ET-1) followed by the antagonist Edonentan in the rabbit, rabbits (Oryctolagus cuniculus) were given a 20 μL intravitreal injection of ET-1 in the left eye followed by a 20 μL intravitreal injection of Edonentan at 2 (or 3) different doses (e.g. 0.1 μg, 0.5 μg, 2.5 μg). The pulse ox, tonometry, optical coherence tomography angiography (OCTA), fluorescein angiography (FA) and retinal leakage scoring were performed for evaluation.

ETA receptor = molecular target: T1, ETA receptor (Homo sapiens, UniProt P25101); test: Functional potency for ETA receptor; assay type: biochemical
T1 sequence (P25101 21-427): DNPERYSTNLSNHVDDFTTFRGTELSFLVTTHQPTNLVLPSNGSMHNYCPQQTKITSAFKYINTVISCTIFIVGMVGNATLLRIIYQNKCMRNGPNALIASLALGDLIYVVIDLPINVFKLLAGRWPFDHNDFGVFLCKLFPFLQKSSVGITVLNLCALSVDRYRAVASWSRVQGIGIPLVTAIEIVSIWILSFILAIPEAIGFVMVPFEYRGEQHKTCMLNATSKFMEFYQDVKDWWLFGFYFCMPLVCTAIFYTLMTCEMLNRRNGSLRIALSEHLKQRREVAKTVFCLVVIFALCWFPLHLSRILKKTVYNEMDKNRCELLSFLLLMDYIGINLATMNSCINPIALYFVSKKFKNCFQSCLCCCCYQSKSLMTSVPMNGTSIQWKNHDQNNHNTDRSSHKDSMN
From the text: as §1

[1] = Pharmacokinetics after topical administration in the rabbit; assay type: in vivo, Dutch-belted rabbits; conditions: single topical eye drop 100 μg, 10 minutes, 2 and 7 hours
Procedure: To determine the pharmacokinetic properties of Edonentan following topical administration in the rabbit, rabbits (Dutch-belted rabbits) received an eye drop in both eyes (100 μg of Edonentan, 35 μL dose volume/eye). After the administrations, the animals (N=2) were euthanized at different time points (e.g. 10 minutes (immediately after pot-dose), 2 and 7 hours) and tissues were collected for analysis. List of tissues collected include plasma, retina, vitreous humor and bulbar conjunctiva.

[2] = Pharmacokinetics after topical or oral administration in the rat; assay type: in vivo, Brown Norway rats
Procedure: After the administrations, the animals (N=2) were euthanized at different time points (e.g. 4 and 8 hours) and tissues were collected for analysis. List of tissues collected include plasma, retina/retinal pigment epithelium (RPE)/choroid, vitreous humor and aqueous humor.

Permeability (rating) (Permeability (PAMPA)): Mid-High | Stability in Solid State (verdict) (Stability in solid state): Stable | Functional potency for ETA and ETB receptors (rating) (ETA receptor): High potency | Specificity ETA vs ETB (rating) (ETA receptor): High specificity | Detection in aqueous humor after oral administration ([2]; oral, 17 mg/kg): detectable | Detection in retina/RPE/choroid and vitreous humor after oral administration ([2]; oral, 1.7 and 17 mg/kg): detectable | Detection in retina/RPE/choroid, aqueous humor and vitreous humor ([2]; topical eye drop 100 μg, 4 and 8 hours): detected
Structure (SMILES): Cc1onc(NS(=O)(=O)c2ccccc2-c2ccc(-c3ncco3)cc2CN(C)C(=O)CC(C)(C)C)c1C [Edonentan, N-[[2′-[[(4,5-dimethyl-3-isoxazolyl)amino]sulfonyl]-4-(2-oxazolyl)[1,1′-biphenyl]-2-yl]methyl]-N,3,3-trimethylbutanamide]
Fluorescein dye velocity as an index of retinal blood flow, dose dependence (ET-1 induced vasospasm; 0.1 μg ET-1 and 0.1, 0.5, 2.5 or 10 μg Edonentan IVT (FIG. 8A, 8B)): dose-response | Effect of ET-1 (retinal vasoconstriction), fluorescein angiography (ET-1 induced vasospasm; 0.5 μg ET-1 IVT, then 10 μg Edonentan IVT, within 90 min (60 min after Edonentan)): reversed | Fluorescein dye velocity as an index of retinal blood flow (ET-1 induced vasospasm; healthy rabbits, 0.5 μg ET-1 and 10 μg antagonist IVT (FIG. 3)): improved to control levels | Detection in plasma, retina, vitreous humor and bulbar conjunctiva [1]: detected in all tissues examined at all timepoints
